Source: patent US7365096B2, “Methods for selectively inhibiting Janus tyrosine kinase 3 (Jak3)” (Board of Regents, The University of Texas System, priority 2002, dated 2008)
“Also recorded” adds a separate entry of the source.

How the values were obtained:
Stat5a/b = test: IL-2 activated Stat5a/b tyrosine phosphorylation in YT cells (Western blot); format: cell-based, human; details: phospho-Western blots
Description: (§1) Solubilization of membrane proteins, immunoprecipitation, and Western blot analysis. Frozen cell pellets were thawed on ice and solubilized in 1% TX-100 lysis buffer (10^8 cells/ml) and clarified by centrifugation, as previously described.^16 For human T-cells, supernates were incubated rotating end over end for 2 hours at 4° C. with either 5 μl/ml polyclonal rabbit antisera raised against peptides derived from the unique COOH-termini of Jak3 (amino acid [a.a.] 1104-1124), carboxyl termini of human Stat5a (a.a. 775-794) or Stat5b (a.a. 777-787).^26 Ab and immunoprecipitated proteins were captured by incubation for 30 minutes with Protein A-Sepharose beads (Pharmacia, Piscataway, N.J.), sedimented for purification, and eluted by boiling in 2×SDS-sample buffer (20% Glycerol, 10% 2-Mercaptoethanol, 4.6% SDS, 0.004% Bromophenol blue in 0.125 M Tris pH 6.8) for 4 minutes. For phosphoMapk assays, approximately 25 μg of total cell lysate was dissociated in SDS-sample buffer and separated on 10% (all others on 7.5%) SDS-PAGE under reducing conditions. […]

[1] = system: IL2R-α, -β, and -γ chains; test: FACS analysis of IL2 receptor expression on PHA-activated T-cell blasts; format: cell-based, human; details: 50 μM overnight
Description: FIG. 7A is a bar graph showing that proliferation of PHA-activated human T cells was blocked by the indicated NCI agents following stimulation with IL-2. FIG. 7B is a FACS analysis of PHA-activated T-cell blasts that were treated without (heavy line) or with 50 μM NC1153 (light line) overnight and stained for IL2R-α, -β, and -γchains. FIG. 7C is a graph of cell growth inhibition over a range of NC1153 concentration in non-Jak3 expressing Jurkat cells (black diamonds) and in Jak3 containing PHA activated T-cells (open boxes). FIG. 7D is a graph of cell growth inhibition versus NC1153 concentration in T-cells stimulated by cytokines that utilize Jak3 and the common gamma chain.
Also shown (FIG. 7B) is a graph showing the FACS analysis of PHA-activated T-cell blasts that were treated without (heavy line) or with 50 μM NC1153 (light line) overnight and stained for IL2R-α, -β, and -γ chains. The dashed lines indicate cells pretreated with NC1153. […] Data are normalized as percent of vehicle control. NC1153 inhibits growth of cells by cytokines that utilize Jak3 and the common gamma chain (FIG. 7D). […] Thus, the inhibitory effects of NC1153 are not limited to cells stimulated only by IL-2. Instead, the entire family of cytokines which use Jak3 are blocked by NC1153.

Jak3 = target: T1, Jak3 (Homo sapiens, UniProt P52333); test: IL-2 activated Jak3 tyrosine phosphorylation in YT cells (Western blot); format: cell-based; design: endogenous in cells; host or cells: human YT cells; details: 1-100 μM, 2 hours, 100 nM IL-2
T1 sequence (P52333 1-1124): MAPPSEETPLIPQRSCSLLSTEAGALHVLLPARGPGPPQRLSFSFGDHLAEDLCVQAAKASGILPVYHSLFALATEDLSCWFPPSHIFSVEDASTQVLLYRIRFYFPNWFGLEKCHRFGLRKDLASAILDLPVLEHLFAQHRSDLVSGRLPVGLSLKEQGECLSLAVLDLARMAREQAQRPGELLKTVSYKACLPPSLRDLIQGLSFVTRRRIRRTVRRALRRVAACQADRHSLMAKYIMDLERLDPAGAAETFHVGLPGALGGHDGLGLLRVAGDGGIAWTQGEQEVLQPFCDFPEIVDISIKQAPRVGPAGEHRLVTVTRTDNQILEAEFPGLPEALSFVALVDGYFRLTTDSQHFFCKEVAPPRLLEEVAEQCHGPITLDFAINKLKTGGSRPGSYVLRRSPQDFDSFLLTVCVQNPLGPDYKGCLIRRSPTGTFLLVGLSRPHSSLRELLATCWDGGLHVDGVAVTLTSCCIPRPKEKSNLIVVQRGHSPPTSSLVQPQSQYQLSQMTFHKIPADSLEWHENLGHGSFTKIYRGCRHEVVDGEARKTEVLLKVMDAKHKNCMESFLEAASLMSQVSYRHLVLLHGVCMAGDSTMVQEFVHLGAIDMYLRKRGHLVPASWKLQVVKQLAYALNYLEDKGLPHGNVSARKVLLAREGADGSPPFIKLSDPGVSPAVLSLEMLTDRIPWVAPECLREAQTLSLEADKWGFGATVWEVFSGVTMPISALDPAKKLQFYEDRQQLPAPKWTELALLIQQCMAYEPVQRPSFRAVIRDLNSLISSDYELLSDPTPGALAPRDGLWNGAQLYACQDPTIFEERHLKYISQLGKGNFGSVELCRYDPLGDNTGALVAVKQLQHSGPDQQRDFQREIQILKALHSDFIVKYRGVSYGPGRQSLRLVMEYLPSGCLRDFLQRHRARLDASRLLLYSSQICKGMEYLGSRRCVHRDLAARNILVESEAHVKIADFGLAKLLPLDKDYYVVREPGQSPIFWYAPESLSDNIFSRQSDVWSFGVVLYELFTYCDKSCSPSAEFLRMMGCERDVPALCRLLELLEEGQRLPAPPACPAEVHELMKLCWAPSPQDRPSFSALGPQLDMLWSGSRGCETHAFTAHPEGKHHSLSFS
Description: as §1

## CN(C)CC1CCCCCCCCCC(CN(C)C)C1=O (mixture of isomers) [649641P (NC1153)]
Stat5a/b
  tyrosine phosphorylation of Stat5a/b: inhibited tyrosine phosphorylation
[1]
  IL2 receptor expression: failed to affect IL2 receptor expression; also recorded: unaffected
Jak3
  tyrosine phosphorylation of Jak3: inhibited in a dose-dependent fashion; also recorded: inhibited tyrosine phosphorylation
